{"source": "patent US11926611B1", "about": "“2-(2-ethoxyethoxy)-6-phenyl-4,4′-bipyridine-3-carbonitrile as an antimicrobial compound” (KING FAISAL UNIVERSITY, priority 2023, dated 2024)", "key": {"Staphylococcus aureus": {"test_system": "Staphylococcus aureus", "assay": "Antimicrobial screening by agar dilution, Staphylococcus aureus", "assay_type": "cell-based", "conditions": "after 10, 20, 40 and 60 minutes at all dilutions 1:100, 1:200, 1:400, 1:800", "experimental": "(§1) The antibacterial properties of the synthesized compound 2-(2-ethoxyethoxy)-6-phenyl-4,4′-bipyridine-3-carbonitrile were studied by the method of agar dilution. Test solutions of each compound was prepared in concentration of 1% using dimethylformamide as a solvent then they are diluted in physiological solution to obtain the final experimental dilutions 1:100, 1:200, 1:400, 1:800. The effect of these substances are compared with furacillin in a controllable study. The testing microbes used were gram positive bacteria Staphylococcus aureus, gram negative bacteria Pseudomonas aeruginosa and Escherichia coli and Candida albicans fungus. The experiments used for this survey were meat-pentonlu agar (EPA) for cultivation of bacteria and Saburo environment for the fungus. Each experiment used 1 mL of test solution on each plate […]. Two drops of emulsified with microbes feel were added. All experimental samples were taken from the agar after 10, 20, 40, 60 minutes in the environment on the basis of Patrk planted. The bacteria were cultivated at a temperature of 37° C. for 1 day and the mushroom was kept in a thermostat for […] at a temperature of 28° C. Then results were checked."}, "Escherichia coli": {"test_system": "Escherichia coli", "assay": "Antimicrobial screening by agar dilution, Escherichia coli", "assay_type": "cell-based", "conditions": "after 10, 20, 40 and 60 minutes at all dilutions 1:100, 1:200, 1:400, 1:800", "experimental": "as §1"}, "Pseudomonas aeruginosa": {"test_system": "Pseudomonas aeruginosa", "assay": "Antimicrobial screening by agar dilution, Pseudomonas aeruginosa", "assay_type": "cell-based", "conditions": "after 10, 20, 40 and 60 minutes at all dilutions 1:100, 1:200, 1:400, 1:800", "experimental": "as §1"}, "Candida albicans": {"test_system": "Candida albicans", "assay": "Antimicrobial screening by agar dilution, Candida albicans", "assay_type": "cell-based", "conditions": "after 10, 20, 40 and 60 minutes at all dilutions 1:100, 1:200, 1:400, 1:800", "experimental": "as §1"}}, "data": [{"compound": "CCOCCOc1nc(-c2ccccc2)cc(-c2ccncc2)c1C#N", "note": "[2-(2-ethoxyethoxy)-6-phenyl-4,4′-bipyridine-3-carbonitrile]", "values": [{"measurement": "inhibition activity (in words)", "setting": "Staphylococcus aureus", "result": "highest inhibition activity"}, {"measurement": "inhibition activity (in words)", "setting": "Escherichia coli", "result": "highest inhibition activity"}, {"measurement": "inhibition activity (in words)", "setting": "Pseudomonas aeruginosa", "result": "highest inhibition activity"}, {"measurement": "inhibition activity (in words)", "setting": "Candida albicans", "result": "highest inhibition activity"}, {"measurement": "melting point", "result": "241 to 243", "unit": "°C"}]}]}
